Measured values published in paper PMC7774954, “Interactomic affinity profiling by holdup assay: Acetylation and distal residues impact the PDZome-binding specificity of PTEN phosphatase” (PLoS ONE, 2020).
*1 amine or outer side, *2 acyl side, *3 side chain or, on linkers, in order; H or OH if unused. Where a SMILES comes first, the peptide text is derived from it. The star is where a group is joined. X1 = O=C(CCCC[C@@H]1SC[C@@H]2NC(=O)N[C@@H]21)NCCCOCCOCCOCCCN*; Suc = O=C(CCC(=O)[*:2])[*:1]

Tests used:
GRASP-1 = GRASP-1 (Homo sapiens, UniProt Q7Z6J2); test: Holdup assay, GRASP-1; format: binding; conditions: for BI: GRASP-1
MPDZ-11 = MPDZ-11 (Homo sapiens, UniProt O75970); test: Holdup assay, MPDZ-11; format: binding
DLG2-1 = DLG2-1 (Homo sapiens, UniProt Q15700); test: Holdup assay, DLG2-1; format: binding; conditions: for BI / LogKD: DLG2-1
LIMK2-1 = molecular target: T1, LIMK2-1 (Homo sapiens, UniProt P53671); test: Holdup assay, LIMK2-1; format: binding
T1 sequence (P53671 152-239): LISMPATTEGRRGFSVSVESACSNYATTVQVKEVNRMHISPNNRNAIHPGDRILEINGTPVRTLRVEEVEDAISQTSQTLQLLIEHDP

IL16-4 = test: Holdup assay, IL16-4; format: binding, human
SNX27 PDZ 1 = molecular target: T2, SNX27 PDZ 1 (Homo sapiens, UniProt Q96L92); test: Holdup assay, SNX27-1; format: binding; conditions: for BI: PDZ domain SNX27-1
T2 construct: made in house; host or cells: E. coli
Procedure: The holdup assay was performed on a Tecan freedom Evo200 robot with 384-well plates in singlicate for the three 11-mer PTEN variants and the 13-mer PTEN peptide as described in [31, 32]. Briefly, prior to interaction assay, 2.5 μL of streptavidin resin was saturated in each well with 20 μL of biotinylated PBM peptides (42 μM) and then washed twice with an excess of free biotin, while the reference resin was incubated only with biotin. Right before the holdup experiment, the PDZ library was spiked with an internal standard of lysozyme. Then, the biotin- or PBM-saturated resin was incubated, each in a distinct well of a 384-well plate, with complete cell lysates diluted so that the concentration of the tag-PDZ present in the crude extract is adjusted at 4 μM. After a sufficient time to reach complex equilibrium (15 min.), a fast and mild filtration step is performed and the tag-PDZ concentrations were measured by capillary electrophoresis instrument (LabChip GXII, PerkinElmer, Massachusets, USA). Standard markers were used to convert migration time into molecular weight on the LabChip software and inappropriate molecular weight markers were corrected or excluded.
For filtered data, the BI was extracted with the following equation (Eq 1) that estimates the depleted fraction after superimposition of the sample and reference electropherograms: BI=Iref−Ilig/Iref (1) where Iref and Ilig are the intensities of the tag-PDZ peaks measured, for each PDZ domain/PBM peptide interaction pair, in the biotin reference and the PBM electropherograms, respectively.
BIs were transformed into dissociation constants (KD) using the following formula: KD=([PDZtot]−BI·[PDZtot])·([PBMtot]−BI·[PDZtot])/BI·[PDZtot] (2) where [PDZtot] and [PBMtot] correspond to the total concentrations of the PDZ domain (usually around 4 μM) and the PBM peptide used during the assay. Since the PBMtot concentration in the resin during the holdup assay parameter may differ from one peptide to another and remains unknown, it is impossible to directly convert BI values into KD constants. We systematically determined the KD constants for a subset of PDZ/PBM pairs by competitive FP. […] For each PBM, the average peptide concentration was calculated after outlier rejection based on the absolute distances from the median as compared to three times the standard deviation (3σ rule), with never more than 2 values rejected.

LIN7A-1 = test: Holdup assay, LIN7A-1; format: binding, human
GRIP1-2 = test: Holdup assay, GRIP1-2; format: binding, human
INADL-3 = test: Holdup assay, INADL-3; format: binding, human
GRIP1-4 = test: Holdup assay, GRIP1-4; format: binding, human
IL16-3 = test: Holdup assay, IL16-3; format: binding, human
LIMK1-1 = test: Holdup assay, LIMK1-1; format: binding, human
DFNB31-3 = molecular target: T3, DFNB31-3 (Homo sapiens, UniProt Q9P202); test: Holdup assay, DFNB31-3; format: binding
T3 sequence (Q9P202 1-907): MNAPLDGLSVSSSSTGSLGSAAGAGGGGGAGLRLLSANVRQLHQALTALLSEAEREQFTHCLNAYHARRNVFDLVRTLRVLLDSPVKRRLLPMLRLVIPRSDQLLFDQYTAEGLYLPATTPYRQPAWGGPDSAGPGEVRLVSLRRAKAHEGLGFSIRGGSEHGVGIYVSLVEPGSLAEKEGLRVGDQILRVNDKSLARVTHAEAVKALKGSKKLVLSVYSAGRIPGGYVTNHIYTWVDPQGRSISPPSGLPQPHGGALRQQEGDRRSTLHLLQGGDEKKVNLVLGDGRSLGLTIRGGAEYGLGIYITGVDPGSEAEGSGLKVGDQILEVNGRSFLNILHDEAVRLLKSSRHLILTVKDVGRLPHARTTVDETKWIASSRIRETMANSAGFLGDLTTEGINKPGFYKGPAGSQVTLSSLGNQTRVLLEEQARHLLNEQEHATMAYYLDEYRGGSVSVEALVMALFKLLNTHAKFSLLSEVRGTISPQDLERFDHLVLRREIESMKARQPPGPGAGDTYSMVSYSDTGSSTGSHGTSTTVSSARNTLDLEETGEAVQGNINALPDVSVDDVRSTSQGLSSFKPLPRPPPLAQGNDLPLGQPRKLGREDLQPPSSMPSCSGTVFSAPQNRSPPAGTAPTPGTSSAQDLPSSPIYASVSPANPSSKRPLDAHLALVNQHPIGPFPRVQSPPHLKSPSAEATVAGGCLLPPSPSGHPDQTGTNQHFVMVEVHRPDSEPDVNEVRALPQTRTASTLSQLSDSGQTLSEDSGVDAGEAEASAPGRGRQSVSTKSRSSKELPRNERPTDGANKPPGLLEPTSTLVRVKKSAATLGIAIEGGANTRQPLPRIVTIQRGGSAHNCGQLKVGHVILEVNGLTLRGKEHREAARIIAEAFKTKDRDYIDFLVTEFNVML

ARHGEF11-1 = molecular target: T4, ARHGEF11-1 (Homo sapiens, UniProt O15085); test: Holdup assay, ARHGEF11-1; format: binding
T4 sequence (O15085 47-126): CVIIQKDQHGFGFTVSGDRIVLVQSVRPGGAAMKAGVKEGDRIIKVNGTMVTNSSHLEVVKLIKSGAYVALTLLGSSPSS

DVL1-1 = test: Holdup assay, DVL1-1; format: binding, human

Chain of GRASP-1 (Q7Z6J2 100-189): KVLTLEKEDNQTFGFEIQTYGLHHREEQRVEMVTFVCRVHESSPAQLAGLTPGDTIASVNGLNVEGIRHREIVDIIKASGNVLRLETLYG
Chain of MPDZ-11 (O75970 whole entry): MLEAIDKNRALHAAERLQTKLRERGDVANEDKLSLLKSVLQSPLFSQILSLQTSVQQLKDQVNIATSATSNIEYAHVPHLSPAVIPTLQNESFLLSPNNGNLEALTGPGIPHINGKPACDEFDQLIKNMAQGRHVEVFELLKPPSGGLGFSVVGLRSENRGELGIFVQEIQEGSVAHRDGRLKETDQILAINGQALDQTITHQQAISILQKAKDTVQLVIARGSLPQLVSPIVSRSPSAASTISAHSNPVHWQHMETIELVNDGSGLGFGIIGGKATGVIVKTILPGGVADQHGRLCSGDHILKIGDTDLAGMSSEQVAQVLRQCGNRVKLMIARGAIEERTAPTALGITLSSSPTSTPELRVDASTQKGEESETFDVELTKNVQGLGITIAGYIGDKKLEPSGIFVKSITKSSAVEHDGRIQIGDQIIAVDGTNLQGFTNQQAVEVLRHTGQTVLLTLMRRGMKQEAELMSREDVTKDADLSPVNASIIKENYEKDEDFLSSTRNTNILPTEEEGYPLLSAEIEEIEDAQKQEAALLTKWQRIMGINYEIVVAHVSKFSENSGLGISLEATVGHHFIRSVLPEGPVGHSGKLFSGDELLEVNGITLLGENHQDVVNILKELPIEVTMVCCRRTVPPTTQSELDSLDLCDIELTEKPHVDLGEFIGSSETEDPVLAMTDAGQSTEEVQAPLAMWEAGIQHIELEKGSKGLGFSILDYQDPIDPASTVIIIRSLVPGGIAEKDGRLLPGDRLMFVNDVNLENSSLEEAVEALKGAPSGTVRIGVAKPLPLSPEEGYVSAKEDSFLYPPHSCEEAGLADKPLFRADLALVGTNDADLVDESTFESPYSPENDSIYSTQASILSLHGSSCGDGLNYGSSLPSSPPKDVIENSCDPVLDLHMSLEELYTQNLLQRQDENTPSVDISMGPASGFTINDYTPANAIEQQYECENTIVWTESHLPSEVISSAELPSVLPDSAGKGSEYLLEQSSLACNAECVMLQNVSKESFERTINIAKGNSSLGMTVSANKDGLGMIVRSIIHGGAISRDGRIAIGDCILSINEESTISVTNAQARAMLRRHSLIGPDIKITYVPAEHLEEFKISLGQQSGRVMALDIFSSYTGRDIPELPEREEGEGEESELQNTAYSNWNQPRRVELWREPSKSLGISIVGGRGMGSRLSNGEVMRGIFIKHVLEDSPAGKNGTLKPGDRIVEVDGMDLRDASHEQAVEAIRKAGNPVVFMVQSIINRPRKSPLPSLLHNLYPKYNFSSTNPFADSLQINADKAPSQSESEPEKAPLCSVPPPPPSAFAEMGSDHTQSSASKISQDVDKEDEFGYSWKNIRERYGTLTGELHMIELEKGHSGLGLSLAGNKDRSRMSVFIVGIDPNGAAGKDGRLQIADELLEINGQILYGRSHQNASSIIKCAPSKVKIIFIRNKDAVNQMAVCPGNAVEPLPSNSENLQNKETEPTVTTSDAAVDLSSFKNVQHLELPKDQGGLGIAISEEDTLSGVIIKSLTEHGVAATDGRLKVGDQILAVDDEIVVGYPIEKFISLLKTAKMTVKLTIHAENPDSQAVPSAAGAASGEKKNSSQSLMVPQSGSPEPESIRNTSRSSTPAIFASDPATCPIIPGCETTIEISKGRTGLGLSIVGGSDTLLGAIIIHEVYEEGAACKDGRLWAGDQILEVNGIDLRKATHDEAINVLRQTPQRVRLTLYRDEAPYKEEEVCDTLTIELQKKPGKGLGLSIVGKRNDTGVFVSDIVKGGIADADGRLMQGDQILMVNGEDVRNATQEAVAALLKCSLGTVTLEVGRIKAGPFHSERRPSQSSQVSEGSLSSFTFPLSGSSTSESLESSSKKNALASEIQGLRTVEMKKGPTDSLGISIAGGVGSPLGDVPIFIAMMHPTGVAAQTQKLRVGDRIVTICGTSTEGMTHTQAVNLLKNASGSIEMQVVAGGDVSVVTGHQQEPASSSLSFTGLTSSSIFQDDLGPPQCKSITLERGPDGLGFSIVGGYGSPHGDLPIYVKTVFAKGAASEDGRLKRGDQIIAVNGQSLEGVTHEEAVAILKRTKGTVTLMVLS

| Compound | Kd (GRASP-1) | BI (GRASP-1) | BI (MPDZ-11) | LogKD (MPDZ-11) | BI (DLG2-1) | LogKD (DLG2-1) | BI (LIMK2-1) | LogKD (LIMK2-1) | BI (IL16-4) | LogKD (IL16-4) | Kd (SNX27 PDZ 1) | BI (LIN7A-1) | BI (GRIP1-2) | BI (INADL-3) | BI (GRIP1-4) | BI (IL16-3) | BI (LIMK1-1) | BI (DFNB31-3) | BI (ARHGEF11-1) | BI (DVL1-1) | further results |
| --- | --- | --- | --- | --- | --- | --- | --- | --- | --- | --- | --- | --- | --- | --- | --- | --- | --- | --- | --- | --- | --- |
| CC[C@H](C)[C@H](NC(=O)[C@H](CCC(N)=O)NC(=O)[C@@H](NC(=O)[C@H](Cc1c[nH]cn1)NC(=O)[C@H](CCC(N)=O)NC(=O)[C@H](CC(=O)O)NC(=O)[C@H](CCC(=O)O)NC(=O)[C@H](CC(=O)O)NC(=O)CCC(=O)NCCCOCCOCCOCCCNC(=O)CCCC[C@@H]1SC[C@@H]2NC(=O)N[C@@H]21)[C@@H](C)O)C(=O)N[C@H](C(=O)N[C@@H](CCCCN)C(=O)N[C@H](C(=O)O)C(C)C)[C@@H](C)O [PTEN_11] | 33.1 µM | 0.492 | 0.021 | 3.519 | 0.034 | 3.519 | 0.05 | 3.519 | -0.028 | 3.519 | 13.8 µM | -0.017 | 0.006 | -0.001 | 0.028 | 0.004 | -0.066 | 0.089 | 0.026 | -0.007 | LogKD (LIN7A-1): 3.519; LogKD (GRIP1-2): 3.519; LogKD (INADL-3): 3.519; LogKD (GRIP1-4): 3.519; LogKD (IL16-3): 3.519; LogKD (LIMK1-1): 3.519; LogKD (DFNB31-3): 3.519; LogKD (ARHGEF11-1): 3.519; LogKD (DVL1-1): 3.519 |
| CC[C@H](C)[C@H](NC(=O)[C@H](CCC(N)=O)NC(=O)[C@@H](NC(=O)[C@H](Cc1c[nH]cn1)NC(=O)[C@H](CCC(N)=O)NC(=O)[C@H](CC(=O)O)NC(=O)[C@H](CCC(=O)O)NC(=O)[C@H](CC(=O)O)NC(=O)[C@H](Cc1ccccc1)NC(=O)[C@@H]1CCCN1C(=O)CCC(=O)NCCCOCCOCCOCCCNC(=O)CCCC[C@@H]1SC[C@@H]2NC(=O)N[C@@H]21)[C@@H](C)O)C(=O)N[C@H](C(=O)N[C@@H](CCCCN)C(=O)N[C@H](C(=O)O)C(C)C)[C@@H](C)O [PTEN_13] ({X1-Suc}-PFDEDQHTQITKV-OH) | 12.4 µM | 0.544 | 0.012 | 3.826 | 0.035 | 3.826 | 0.152 | – | 0.014 | – | 5.58 µM | -0.019 | 0.009 | 0.031 | -0.039 | -0.001 | -0.103 | 0.061 | 0.114 | -0.013 | BI (SNX27 PDZ 1): 0.717; LogKD (DFNB31-3): 3.826 |
| CC[C@H](C)[C@H](NC(=O)[C@H](CCC(N)=O)NC(=O)[C@@H](NC(=O)[C@H](Cc1c[nH]cn1)NC(=O)[C@H](CCC(N)=O)NC(=O)[C@H](CC(=O)O)NC(=O)[C@H](CCC(=O)O)NC(=O)[C@H](CC(=O)O)NC(=O)CCC(=O)NCCCOCCOCCOCCCNC(=O)CCCC[C@@H]1SC[C@@H]2NC(=O)N[C@@H]21)[C@@H](C)O)C(=O)N[C@H](C(=O)N[C@@H](CCCCNC(C)=O)C(=O)N[C@H](C(=O)O)C(C)C)[C@@H](C)O [PTEN_Ac] | 8.02 µM | 0.757 | 0.145 | – | 0.211 | – | -0.087 | 3.605 | 0.014 | 3.605 | 4.03 µM | -0.07 | -0.02 | -0.021 | 0.038 | -0.166 | -0.047 | 0.275 | 0.428 | -0.016 | Kd (DLG2-1): 102 µM; BI (SNX27 PDZ 1): 0.859; LogKD (LIN7A-1): 3.605; LogKD (GRIP1-2): 3.605; LogKD (INADL-3): 3.605; LogKD (GRIP1-4): 3.605; LogKD (IL16-3): 3.605; LogKD (LIMK1-1): 3.605; Kd (DFNB31-3): 70.9 µM; Kd (ARHGEF11-1): 35.1 µM; LogKD (DVL1-1): 3.605 |
